Patent US20230293519A1, “INTEGRIN INHIBITORS AND USES THEREOF IN COMBINATION WITH OTHER AGENTS” (Pliant Therapeutics, Inc., priority 2021, published 2023)

Assays:
lung Col1a1 expression [1] = assay: Precision cut lung slices from human IPF explants, 3 days; format: cell-based; conditions: 3G9 ≥400 ng/mL, compound 5 179 nM, ALK5 inhibitor 1 µM
Source text: Explanted lung tissue was obtained from human IPF subjects and inflated with agarose as described in the preceding examples. Biopsy cores were obtained from the agarose-inflated lung tissue. The biopsy cores were subjected to precision slicing to obtain several hundred µm thick. Individual slices were distributed in a multiwell culture plate and cultured for 3 days under control (DMSO) and test compound conditions. The viability of the slices over the course of culturing was confirmed by WST-1 assay of mitochondrial activity.

lung Col1a1 expression [2] = assay: Precision cut lung slices of mice under chronic bleomycin exposure (vs pirfenidone and nintedanib); format: cell-based, mouse; conditions: slices cultured 7 days; nintedanib and pirfenidone at 10x therapeutic concentrations
Procedure: (§1) Mice (C57BL/6) were administered 3 U/kg of bleomycin (Teva Pharmaceuticals; North Wales, PA) on Day 0 and 1 U/kg of bleomycin on days 14, 28, 42 and 56 via oropharyngeal aspiration while under anesthesia. At day 70, 14 days following the final bleomycin insult, precision cut lung slices were obtained. Following euthanization, 2% low gelling temp agarose was injected into the mouse lungs via the trachea. […] The lobes were then subjected to precision slicing to obtain samples for culture using a microtome (Compresstome VF-300-0Z, Precisionary; Greenville, NC). Individual slices were distributed in a multiwell culture plate and cultured for 7 days under control (DMSO) and test compound conditions. The viability of the slices over the course of culturing was confirmed by WST-1 assay of mitochondrial activity.
During the culture period, slices in the control group were treated with DMSO and slices in the test group were treated with a DMSO solution of one of: compound 5; nintedanib; pirfenidone; a combination of nintedanib and compound 5; a combination of pirfenidone and compound 5; or the small molecule ALK5 inhibitor. Compound 5 was […] effective to equal or exceed its respective IC50 values at αvβ6 and αvβ1. The small molecule ALK5 inhibitor was analyzed at 10x its reported IC50 value. Nintendanib and pirfenidone were analyzed at concentrations 10x their reported therapeutic concentrations.

lung Col1a1 expression [3] = assay: Precision cut lung slices of mice under chronic bleomycin exposure (single vs dual integrin inhibition); format: cell-based, mouse; conditions: slices cultured 7 days
Procedure: as §1, with “after” for “following”, “The viability of the slices over the course of culturing was confirmed by WST-1 assay of mitochondrial activity.” left out
During the culture period, slices in the control group were treated with DMSO and slices in the test group were treated with a DMSO solution of one of: the selective antibody αvβ6 inhibitor 3G9; the αvβ1-selective small molecule inhibitor; a combination of the selective antibody αvβ6 inhibitor 3G9 and the αvβ1-selective small molecule inhibitor; compound 5; and the small molecule ALK5 inhibitor. The selective αvβ1 and αvβ6 integrin inhibitors were analyzed at ≥ their respective IC90 concentrations for inhibition of TGF-beta activation. […] The small molecule ALK5 inhibitor was analyzed at 10x its reported IC50 value.

[4] = system: Type I Collagen gene Col1a1 expression; assay: Precision cut lung slices of mice under acute bleomycin exposure; format: cell-based, mouse
Procedure: Mice (C57BL/6) were administered 3 U/kg of bleomycin (Teva Pharmaceuticals; North Wales, PA) on day 0 via oropharyngeal aspiration while under anesthesia. On day 14, precision cut lung slices were obtained. Following euthanization, 2% low gelling temp agarose was injected into the mouse lungs via the trachea. […] The lobes were then subjected to precision slicing to obtain samples for culture using a microtome (Compresstome VF-300-0Z, Precisionary; Greenville, NC). Individual slices were distributed in a multiwell culture plate and cultured for 3 days under control (DMSO) and test compound conditions.

COL1A1 expression = assay: PCLS from human IPF lung tissue, 7 days: COL1A1 expression; format: cell-based; conditions: Compound 5 200 nM, nintedanib 75 nM, pirfenidone 50 µM, 5-7 IPF lungs
Procedure: PCLS from 5-7 idopathic pulmonary fibrosis (IPF) lung tissue samples were cultured for seven days with one of: DMSO; Compound 5 at 200 nM; nintedanib at 75 nM; pirfenidone at 50 µm; a combination of Compound 5 at 200 nM and nintedanib at 75 nM; a combination of Compound 5 at 200 nM and pirfenidone at 50 µm; or an Alk5 inhibitor at 1 µm. […] FIG. 6D is a bar graph showing relative expression of COL1A1 in precision cut lung slices (PCLS) from idopathic pulmonary fibrosis (IPF) lung tissue upon exposure to Comopund 5, clinical standard of care compounds nintedanib (Nin) and pirfenidone (Pirf), and an ALK5 inhibitor, all versus DMSO control.
PCLS from a single IPF lung tissue sample were cultured for seven days with Compound 5 at concentrations of 200 pM, 2 nM, 60 nM, 200 nM, and 1 µM, along with 0.1% DMSO control and an Alk5 inhibitor at 1 µM. […] COL1A1 expression is also graphed for the PCLS in the presence of 0.1% DMSO control, and an Alk5 inhibitor at 1 µM.

[5] = system: fibrosis-related gene expression in explanted human lung tissue from patients with idiopathic pulmonary fibrosis; assay: nCounter Fibrosis Panel gene expression in precision cut lung slices from IPF explants; format: cell-based; conditions: IPF PCLS, 7 days, vs DMSO
Source text: Fibrosis-related gene expression in explanted human lung tissue from patients with idiopathic pulmonary fibrosis was examined in order to determine what impact combining Compound 5 treatment with standard-of-care drugs nintedanib or pirfenidone, has on the expression of such genes.
Samples used for this analysis are a subset (n = 4 of 7) of the lungs previously reported on in Decaris et al., Respir Res (2021) 22:265 (FIGS. 6 A and B). Briefly, tissue samples from patients with IPF were acquired at the time of lung transplantation. Precision cut lung slices were generated from the explants and cultured for 7 days in the presence of inhibitors (Compound 5, nintedanib, pirfenidone) at clinically relevant concentrations or vehicle (DMSO). Treated slices were lysed in mRNA-compatible buffer for gene expression analysis. For this study, the lysate from n = 6 slices per treatment per lung were pooled for analysis using the nCounter Fibrosis Panel (Nanostring) on the nCounter Max analyzer (Nanostring). This commercially available panel of 770 genes includes genes related to initial tissue damage response, chronic inflammation, proliferation of pro-fibrotic cells, and tissue modification leading to fibrotic disease. Technical quality control and normalization of raw Nanostring mRNA count data was performed using an R framework developed by Bhattacharya et al. (Bhattacharya A. et al., Brief Bioinform. 2021 May 20;22(3):bbaa163). The R packages limma (see URL www.bioconductor.org/packages/release/bioc/html/limma.html) and voom (Law, C.W. et al., Genome Biol. 2014 Feb 3;15(2):R29) were used to detect differentially expressed genes. Benjamini-Hochberg False Discovery Rate (FDR = 5%) was used to adjust p-values for multiple comparisons.

`Cc1cccc(-c2n[nH]cc2-c2ccc(F)c(-c3cnn(CCO)c3)c2)n1` [small molecule ALK5 inhibitor, 4-[2-Fluoro-5-[3-(6-methyl-2-pyridinyl)-1H-pyrazol-4-yl]phenyl]-1H-pyrazole-1-ethanol, reference compound] was tested, and the “lung Col1a1 expression vs DMSO control” value (lung Col1a1 expression [1]) was “substantial, statistically significant”, the “lung Col1a1 expression vs DMSO control” value (lung Col1a1 expression [2]) was “substantial, statistically significant” and the “lung Col1a1 expression vs DMSO control” value (lung Col1a1 expression [3]) was “greatest decrease”. The “Type I Collagen gene Col1a1 expression vs DMSO control” value ([4]; slices cultured 3 days, integrin inhibitors at IC50, pan-αv and ALK5 inhibitors at 10x IC50) was “greatest decrease”.

For `Cc1ccc(=O)n(-c2ccccc2)c1` [pirfenidone, 5-methyl-1phenyl-2-1(H)-pyridone], the “reduction of COL1A1 expression” value (COL1A1 expression) was “did not significantly reduce”, the “% Reduction of CDH2 expression” value [5] was -7.12% and the “% Reduction of COL1A1 expression” value [5] was 8.58%. The “% Reduction of COL5A3 expression” value [5] was 23.95%, the “% Reduction of ITGAS expression” value [5] was 26.21% and the “% Reduction of THBS2 expression” value [5] was 21.20%. For the same molecule, the “logFC of ACACA expression” value [5] was 0.4392, the “logFC of ACVRL1 expression” value [5] was -0.7278 and the “logFC of ALDH7A1 expression” value [5] was 0.6119. For the same molecule, the “logFC of C6 expression” value [5] was 1.475, the “logFC of CD34 expression” value [5] was -0.8356 and the “logFC of CDH5 expression” value [5] was -1.0568. The “logFC of CFTR expression” value [5] was 1.189, the “logFC of COL4A1 expression” value [5] was -0.7024 and the “logFC of COL7A1 expression” value [5] was 0.6703. For the same molecule, the “logFC of COL14A1 expression” value [5] was -0.7785, the “logFC of COX4I2 expression” value [5] was -0.7471 and the “logFC of CXCL2 expression” value [5] was 0.778. The “logFC of CXCL12 expression” value [5] was -0.5918, the “logFC of CXCR4 expression” value [5] was -0.8852 and the “logFC of EGFR expression” value [5] was 0.4764. For the same molecule, the “logFC of F11R expression” value [5] was 0.5803, the “logFC of FGF19 expression” value [5] was -1.14 and the “logFC of GAS1 expression” value [5] was -0.6419. For the same molecule, the “logFC of GPC4 expression” value [5] was 0.4613, the “logFC of GREM1 expression” value [5] was -0.7447 and the “logFC of HADH expression” value [5] was 0.4377. The “logFC of HAVCR1 expression” value [5] was -0.7313, the “logFC of ICAM1 expression” value [5] was 0.4322 and the “logFC of IFNG expression” value [5] was -0.5853. For the same molecule, the “logFC of KLF5 expression” value [5] was 0.7343, the “logFC of KNG1 expression” value [5] was -1.1 and the “logFC of LYN expression” value [5] was 0.4785. For the same molecule, the “logFC of MET expression” value [5] was 1.096, the “logFC of MMP7 expression” value [5] was 1.413 and the “logFC of MMRN1 expression” value [5] was -0.9784. The “logFC of NOTCH4 expression” value [5] was -0.7164, the “logFC of OCLN expression” value [5] was 0.5956 and the “logFC of PDGFRB expression” value [5] was -0.7514. For the same molecule, the “logFC of PECAM1 expression” value [5] was -0.9354, the “logFC of PSENEN expression” value [5] was 0.4784 and the “logFC of PTGS2 expression” value [5] was 0.9466. For the same molecule, the “logFC of RELN expression” value [5] was -0.8283, the “logFC of SAA1 expression” value [5] was 1.653 and the “logFC of TEK expression” value [5] was -0.8124. The “logFC of WWC1 expression” value [5] was 0.8127, the “lung Col1a1 expression vs DMSO control” value (lung Col1a1 expression [2]) was “slight increase” and the “fold increase in concentration over compound 5 needed to reduce lung slice Col1a1 expression by 50%” value ([4]; acute bleomycin injured lung slices) was 3,940 fold.
